Results taken from patent US7138361B2, “Herbicidal heterocycles” (E. I. du Pont de Nemours and Company, priority 2000, dated 2006).

Assays:
Test in all cases: Test D greenhouse paddy-water test in rice
Type in all cases: in vivo
Details in all cases: 500 g/ha alone, 21 days, 0-100 scale
[1] = tested on: Alisma plantago-aquatica (Ap)
Description: (§1) Four plastic pots (ca. 16-cm diameter) per rate were partially filled with sterilized Tama silt loam soil comprised of a 35:50:15 ratio of sand, silt and clay and 2.6% organic matter. Separate plantings for each of the four pots were as follows. Seeds from the U.S. of Heteranthera limosa (Hl), Monochoria vaginalis (Mv), Ammania auriculata (Aa), and Sphenoclea zeylanica (Sz) were planted into one 16-cm pot for each rate. Seeds from the U.S. of Cyperus iria (Ci), Leptochloa fascicularis (Li), one stand of 9 or 10 direct-seeded rice seedlings (Oryza saliva cv. ‘Japonica—M202’; Oss), and one stand of 6 transplanted rice seedlings (Oryza sativa cv. ‘Japonica—M202’; Ost) were planted into one 16-cm pot for each rate. Seeds from the U.S. of Cyperus difformis (Cd), Alisma plantago-aquatica (Ap), and Scirpus mucronatus (Sm) were planted into one 16-cm pot for each rate. Seeds from the U.S. of Echinochloa crus-galli (Ecg), Echinochloa oryzicola (Eor), Echinochloa oryzoides (Eoz) and Echinochloa colonum (Ecc) were planted into one 16-cm pot for each rate. Plantings were sequential so that crop and weed species were at the 2.0 to 2.5-leaf stage at time of treatment.
(§2) Potted plants were grown in a greenhouse with day/night temperature settings of 29.5/26.7° C., and supplemental balanced lighting was provided to maintain a 16-hour photoperiod. Test pots were maintained in the greenhouse until test completion.
(§3) Chemical treatments consisting of Compound 1 of Index Table A (Cmpd 1), daimuron (Cmpd D), quinoclamine (Cmpd Q) and combinations thereof were formulated in acetone. At time of treatment, test pots were flooded to 3 cm above the soil surface, treated by application of test compounds directly to the paddy water, and then maintained at that water depth for the duration of the test. Effects of treatments on rice and weeds were visually evaluated by comparison to untreated controls after 21 days. Plant response ratings are reported on a 0 to 100 scale; where 0 is no effect and 100 is complete control. ND means no data.
(§4) Colby's equation was used to calculate the expected additive herbicidal effect of the mixtures of Compound 1 with daimuron (Cmpd D) and quinoclamine (Cmpd Q). Colby's equation (Colby, S. R “Calculating Synergistic and Antagonistic Responses of Herbicide Combinations,” Weeds, 15(1), pp 20–22 (1967)) calculates the expected additive effect of herbicidal mixtures, and for two active ingredients is of the form: Pa+b=Pa+Pb−(PaPb/100) wherein Pa+b is the percentage effect of the mixture expected from additive contribution of the individual components, • Pa is the observed percentage effect of the first active ingredient at the same use rate as in the mixture, and • Pb is the observed percentage effect of the second active ingredient at the same use rate as in the mixture.

Ammania auriculata (Aa) = tested on: Ammania auriculata (Aa)
Description: as §1, §2, §3, §4

Cyperus difformis (Cd) = tested on: Cyperus difformis (Cd)
Description: as §1, §2, §3, §4

Cyperus iria (Ci) = tested on: Cyperus iria (Ci)
Description: as §1, §2, §3, §4

[2] = tested on: Echinochloa colonum (Ecc)
Description: as §1, §2, §3, §4

[3] = tested on: Echinochloa crus-galli (Ecg)
Description: as §1, §2, §3, §4

[4] = tested on: Echinochloa oryzicola (Eor)
Description: as §1, §2, §3, §4

[5] = tested on: Echinochloa oryzoides (Eoz)
Description: as §1, §2, §3, §4

Heteranthera limosa (Hl) = tested on: Heteranthera limosa (Hl)
Description: as §1, §2, §3, §4

[6] = tested on: Leptochloa fascicularis (Li)
Description: as §1, §2, §3, §4

[7] = tested on: Monochoria vaginalis (Mv)
Description: as §1, §2, §3, §4

[8] = tested on: Sphenoclea zeylanica (Sz)
Description: as §1, §2, §3, §4

[9] = tested on: direct-seeded rice seedlings (Oryza saliva cv. 'Japonica—M202'; Oss)
Description: as §1, §2, §3, §4

[10] = tested on: transplanted rice seedlings (Oryza sativa cv. 'Japonica—M202'; Ost)
Description: as §1, §2, §3, §4

Cc1ccc(NC(=O)NC(C)(C)c2ccccc2)cc1 [daimuron, reference compound]
Obs. (observed effect) Ap [1]: 0 | Obs. (observed effect) Aa (Ammania auriculata (Aa)): 0 | Obs. (observed effect) Cd (Cyperus difformis (Cd)): 60 | Obs. (observed effect) Ci (Cyperus iria (Ci)): 0 | Obs. (observed effect) Ecc [2]: 0 | Obs. (observed effect) Ecg [3]: 0 | Obs. (observed effect) Eor [4]: 0 | Obs. (observed effect) Eoz [5]: 0 | Obs. (observed effect) Hl (Heteranthera limosa (Hl)): 30 | Obs. (observed effect) Lf [6]: 0 | Obs. (observed effect) Mv [7]: 30 | Obs. (observed effect) Sz [8]: 20 | Obs. (observed effect) Oss [9]: 0 | Obs. (observed effect) Ost [10]: 0
